Among the data in PMC9014634 (Journal of Pharmacological Sciences, 2022) are CC50 values, retold here.

The nature of this series: in vitro. The series is classed as cell-based. The conditions noted are these: human.

One may read the CC50 as the concentration at which the toxic effect on the cells reaches its halfway point. Higher therefore signals better tolerance by the cells. Regarding `C[C@]12C=CC(=O)C=C1CC[C@@H]1[C@@H]2[C@@H](O)C[C@@]2(C)[C@H]1C[C@H]1O[C@@H](C3CCCCC3)O[C@]12C(=O)CO` [Cic2, desisobutyryl ciclesonide], the CC50 was more than 30 µM.
The same measure for `CC(C)C(=O)OCC(=O)[C@@]12O[C@H](C3CCCCC3)O[C@@H]1C[C@H]1[C@@H]3CCC4=CC(=O)C=C[C@]4(C)[C@H]3[C@@H](O)C[C@@]12C` [Cic, Ciclesonide]: more than 30 µM.
